Results taken from publication PMC10573254, “Development of Novel Class of Phenylpyrazolo[3,4-d]pyrimidine-Based Analogs with Potent Anticancer Activity and Multitarget Enzyme Inhibition Supported by Docking Studies” (International Journal of Molecular Sciences, 2023).
Like-named read-outs stand apart in the source and are kept apart here.

Tests used:
[1] = system: MCF-7 cells; assay: Annexin V-FITC/PI apoptosis assay; type: cell-based, human; settings: MCF-7, 3.81 μM
Procedure: We used annexin V-binding studies via flow cytometer to confirm the apoptosis induction by our compound. The apoptotic nature of 5i against MCF-7 cells was tested via flow cytometry detection after double-staining with Annexin V-FITC and propidium iodide (PI).
Annexin V-FITC apoptosis assay was conducted utilizing the Annexin V-FITC/PI double staining detection kit (BD Pharmingen, San Diego, CA, USA), as described elsewhere.

[2] = molecular target: EGFR^WT (Homo sapiens, UniProt P00533); assay: In vitro EGFR enzyme inhibitory assay; type: biochemical; settings: for EGFR %inh at conc 0.01: conc 0.01, unit not given; for EGFR %inh at conc 0.1: conc 0.1, unit not given; for EGFR %inh at conc 1: conc 1, unit not given; for EGFR %inh at conc 10: conc 10, unit not given
EGFR^WT, sequence (P00533 25-1210): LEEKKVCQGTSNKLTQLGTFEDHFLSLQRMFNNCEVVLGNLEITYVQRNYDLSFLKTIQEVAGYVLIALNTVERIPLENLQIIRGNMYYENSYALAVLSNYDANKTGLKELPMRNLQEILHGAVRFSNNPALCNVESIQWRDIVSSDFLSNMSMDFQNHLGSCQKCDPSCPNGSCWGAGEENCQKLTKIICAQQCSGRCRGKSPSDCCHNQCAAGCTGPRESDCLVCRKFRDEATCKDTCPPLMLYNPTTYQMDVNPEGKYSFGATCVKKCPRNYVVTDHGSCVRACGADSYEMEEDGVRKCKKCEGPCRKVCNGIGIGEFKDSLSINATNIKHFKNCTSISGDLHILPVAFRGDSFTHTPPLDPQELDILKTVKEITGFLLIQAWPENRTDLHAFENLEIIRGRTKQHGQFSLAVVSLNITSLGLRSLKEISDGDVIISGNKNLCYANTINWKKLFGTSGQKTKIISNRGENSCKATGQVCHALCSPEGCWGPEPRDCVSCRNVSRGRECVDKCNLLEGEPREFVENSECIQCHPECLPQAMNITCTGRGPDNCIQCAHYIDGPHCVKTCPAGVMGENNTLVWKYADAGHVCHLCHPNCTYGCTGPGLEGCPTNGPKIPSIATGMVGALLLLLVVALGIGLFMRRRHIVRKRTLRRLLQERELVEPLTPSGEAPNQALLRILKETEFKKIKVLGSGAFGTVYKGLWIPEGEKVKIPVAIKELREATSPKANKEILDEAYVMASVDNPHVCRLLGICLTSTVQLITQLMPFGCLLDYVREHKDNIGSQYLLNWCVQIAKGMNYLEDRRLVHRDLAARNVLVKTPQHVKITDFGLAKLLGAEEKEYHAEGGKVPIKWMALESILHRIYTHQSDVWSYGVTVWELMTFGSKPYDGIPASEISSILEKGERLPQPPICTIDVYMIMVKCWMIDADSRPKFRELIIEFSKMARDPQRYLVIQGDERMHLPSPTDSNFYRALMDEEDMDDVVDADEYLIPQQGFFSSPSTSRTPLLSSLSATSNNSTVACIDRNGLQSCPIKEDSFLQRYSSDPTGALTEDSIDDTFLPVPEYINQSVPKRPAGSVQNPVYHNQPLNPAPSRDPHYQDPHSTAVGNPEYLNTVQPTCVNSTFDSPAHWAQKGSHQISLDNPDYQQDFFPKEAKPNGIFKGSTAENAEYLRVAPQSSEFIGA

[3] = molecular target: T1, Topo-II (Homo sapiens, UniProt Q02880); assay: In vitro Topo II inhibitory assay; type: biochemical; settings: for TOPO IiB %inh at conc 0.1: conc 0.1, unit not given; for TOPO IiB %inh at conc 1: conc 1, unit not given; for TOPO IiB %inh at conc 10: conc 10, unit not given; for TOPO IiB %inh at conc 100: conc 100, unit not given
T1 construct: purchased
T1 sequence (Q02880 2-1626): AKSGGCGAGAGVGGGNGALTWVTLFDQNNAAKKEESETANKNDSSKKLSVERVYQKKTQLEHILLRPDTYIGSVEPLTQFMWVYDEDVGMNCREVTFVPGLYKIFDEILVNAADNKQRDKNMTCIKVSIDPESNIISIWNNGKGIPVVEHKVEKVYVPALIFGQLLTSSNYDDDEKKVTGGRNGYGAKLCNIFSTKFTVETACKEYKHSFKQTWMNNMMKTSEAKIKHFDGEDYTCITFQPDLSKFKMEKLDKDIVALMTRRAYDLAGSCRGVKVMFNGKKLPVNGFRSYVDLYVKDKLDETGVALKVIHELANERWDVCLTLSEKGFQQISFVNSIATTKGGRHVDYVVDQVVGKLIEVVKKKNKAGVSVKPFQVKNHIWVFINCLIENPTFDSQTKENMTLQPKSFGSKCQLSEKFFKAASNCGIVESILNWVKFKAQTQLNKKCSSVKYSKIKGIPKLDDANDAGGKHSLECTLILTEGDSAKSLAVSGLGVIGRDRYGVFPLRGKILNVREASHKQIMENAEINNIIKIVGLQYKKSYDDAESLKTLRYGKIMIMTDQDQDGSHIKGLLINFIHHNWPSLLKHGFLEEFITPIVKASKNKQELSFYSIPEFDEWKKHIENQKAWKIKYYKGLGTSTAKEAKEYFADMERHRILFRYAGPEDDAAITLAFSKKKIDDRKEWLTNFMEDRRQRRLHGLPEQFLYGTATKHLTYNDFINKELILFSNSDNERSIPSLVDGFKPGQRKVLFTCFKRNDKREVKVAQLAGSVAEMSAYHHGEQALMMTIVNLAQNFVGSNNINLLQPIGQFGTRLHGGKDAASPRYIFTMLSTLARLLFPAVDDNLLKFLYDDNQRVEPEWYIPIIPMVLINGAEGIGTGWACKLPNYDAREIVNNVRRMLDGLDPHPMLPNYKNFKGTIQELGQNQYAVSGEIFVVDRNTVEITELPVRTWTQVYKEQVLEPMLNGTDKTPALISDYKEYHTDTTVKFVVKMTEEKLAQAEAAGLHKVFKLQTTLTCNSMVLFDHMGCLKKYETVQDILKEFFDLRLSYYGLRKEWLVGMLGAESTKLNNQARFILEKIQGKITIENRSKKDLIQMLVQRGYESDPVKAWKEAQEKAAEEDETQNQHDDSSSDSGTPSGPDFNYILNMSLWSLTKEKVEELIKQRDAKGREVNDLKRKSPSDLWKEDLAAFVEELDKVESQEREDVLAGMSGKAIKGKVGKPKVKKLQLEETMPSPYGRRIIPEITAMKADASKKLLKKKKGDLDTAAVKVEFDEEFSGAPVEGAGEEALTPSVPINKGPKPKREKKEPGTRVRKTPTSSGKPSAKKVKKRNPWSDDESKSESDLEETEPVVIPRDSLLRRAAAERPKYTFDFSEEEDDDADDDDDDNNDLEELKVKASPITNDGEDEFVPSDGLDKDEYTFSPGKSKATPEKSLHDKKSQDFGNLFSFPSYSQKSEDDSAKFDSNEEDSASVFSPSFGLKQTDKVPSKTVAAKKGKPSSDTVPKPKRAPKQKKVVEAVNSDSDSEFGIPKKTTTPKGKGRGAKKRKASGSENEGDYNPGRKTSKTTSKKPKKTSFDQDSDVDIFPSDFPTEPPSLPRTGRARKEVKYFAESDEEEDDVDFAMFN
Procedure: (§1) Curve fitting was performed using GraphPad Prism.
(§2) (1 picture or pasted object on this page, not shown here)

[4] = system: Topo-II; assay: In vitro Topo II inhibitory assay; type: biochemical, Human; settings: fold, EGFR^WT versus Topo-II
Procedure: as §1, §2

[5] = system: MCF-7; assay: MTT cytotoxicity assay, MCF-7; type: cell-based; settings: Homo sapiens, MCF7
Procedure: (§5) The cytotoxic activity was assessed using the 3-(4,5-dimethylthiazol-2-yl)-2,5-diphenyl tetrazolium bromide (MTT) colorimetric assay, as reported previously [62, 63]. […] Briefly, the designated cell lines were cultured at a concentration of 5 × 10^4 cell/well in 96-well plates. The cells were incubated for 24 h under optimum conditions. Following this, the designated molecules were introduced (in serial dilutions from 0 to 50 μg/mL), and the cells were incubated for an additional 24 h. Following this, the media were withdrawn, and 100 μL of fresh medium was added. Then, 10 µL of the 12 mM MTT stock solution was administered to each well. The plates were then incubated for 4 h. Then, the cells were exposed to different compounds at the desired concentrations (0.01, 0.1, 1, 10, and 100 µM) or to 1% dimethyl sulfoxide (DMSO) for 48 and 72 h. […] Then, the optical density was measured at 590 nm with the microplate reader (Sunrise, TECAN, Inc., Morrisville, NC, USA).

[6] = molecular target: VEGFR-2 (Homo sapiens, UniProt P35968); assay: In vitro VEGFR2 enzyme inhibitory assay; type: biochemical; settings: for VEGFR2 %inh at conc 0.01: conc 0.01, unit not given; for VEGFR2 %inh at conc 0.1: conc 0.1, unit not given; for VEGFR2 %inh at conc 1: conc 1, unit not given; for VEGFR2 %inh at conc 10: conc 10, unit not given; for target selectivity index EGFR over VGFR-2: fold, EGFR^WT versus VGFR-2
Procedure: as §1, §2

[7] = system: MCF-7, HCT116, and HePG-2; assay: MTT assay against three malignant cell lines (summary); type: cell-based; settings: Homo sapiens, read-out: IC50 cytotoxicity (range over cell lines)
Procedure: (§3) According to our design, the tested compounds are classified into four categories based on the length and the chemotype of the spacer (Figure 3). In the first category, we used monosubstituted hydrazone linker. […] The second category is represented by […] hydrazone linker.
(§4) The cytotoxic activity was assessed using the 3-(4,5-dimethylthiazol-2-yl)-2,5-diphenyl tetrazolium bromide (MTT) colorimetric assay, as reported previously. Doxorubicin was used as a reference standard, and DMSO was used as a negative control. Briefly, the designated cell lines were cultured at a concentration of 5 × 10^4 cell/well in 96-well plates. The cells were incubated for 24 h under optimum conditions. Following this, the designated molecules were introduced (in serial dilutions from 0 to 50 μg/mL), and the cells were incubated for an additional 24 h. Following this, the media were withdrawn, and 100 μL of fresh medium was added. Then, 10 µL of the 12 mM MTT stock solution was administered to each well. The plates were then incubated for 4 h. […] An 85-μL aliquot of the media was removed from the wells, and 50 µL of DMSO was added to each well and mixed thoroughly with the pipette and incubated at 37 °C for 10 min. Then, the optical density was measured at 590 nm with the microplate reader (Sunrise, TECAN, Inc., Morrisville, NC, USA).

[8] = system: HCT-116; assay: MTT cytotoxicity assay, HCT-116; type: cell-based; settings: Homo sapiens
Procedure: as §5

[9] = molecular target: EGFR^T790M (Homo sapiens, UniProt P00533, T790M); assay: In vitro EGFR T790M kinase inhibitory assay
EGFR^T790M, sequence (P00533 25-1210 T790M): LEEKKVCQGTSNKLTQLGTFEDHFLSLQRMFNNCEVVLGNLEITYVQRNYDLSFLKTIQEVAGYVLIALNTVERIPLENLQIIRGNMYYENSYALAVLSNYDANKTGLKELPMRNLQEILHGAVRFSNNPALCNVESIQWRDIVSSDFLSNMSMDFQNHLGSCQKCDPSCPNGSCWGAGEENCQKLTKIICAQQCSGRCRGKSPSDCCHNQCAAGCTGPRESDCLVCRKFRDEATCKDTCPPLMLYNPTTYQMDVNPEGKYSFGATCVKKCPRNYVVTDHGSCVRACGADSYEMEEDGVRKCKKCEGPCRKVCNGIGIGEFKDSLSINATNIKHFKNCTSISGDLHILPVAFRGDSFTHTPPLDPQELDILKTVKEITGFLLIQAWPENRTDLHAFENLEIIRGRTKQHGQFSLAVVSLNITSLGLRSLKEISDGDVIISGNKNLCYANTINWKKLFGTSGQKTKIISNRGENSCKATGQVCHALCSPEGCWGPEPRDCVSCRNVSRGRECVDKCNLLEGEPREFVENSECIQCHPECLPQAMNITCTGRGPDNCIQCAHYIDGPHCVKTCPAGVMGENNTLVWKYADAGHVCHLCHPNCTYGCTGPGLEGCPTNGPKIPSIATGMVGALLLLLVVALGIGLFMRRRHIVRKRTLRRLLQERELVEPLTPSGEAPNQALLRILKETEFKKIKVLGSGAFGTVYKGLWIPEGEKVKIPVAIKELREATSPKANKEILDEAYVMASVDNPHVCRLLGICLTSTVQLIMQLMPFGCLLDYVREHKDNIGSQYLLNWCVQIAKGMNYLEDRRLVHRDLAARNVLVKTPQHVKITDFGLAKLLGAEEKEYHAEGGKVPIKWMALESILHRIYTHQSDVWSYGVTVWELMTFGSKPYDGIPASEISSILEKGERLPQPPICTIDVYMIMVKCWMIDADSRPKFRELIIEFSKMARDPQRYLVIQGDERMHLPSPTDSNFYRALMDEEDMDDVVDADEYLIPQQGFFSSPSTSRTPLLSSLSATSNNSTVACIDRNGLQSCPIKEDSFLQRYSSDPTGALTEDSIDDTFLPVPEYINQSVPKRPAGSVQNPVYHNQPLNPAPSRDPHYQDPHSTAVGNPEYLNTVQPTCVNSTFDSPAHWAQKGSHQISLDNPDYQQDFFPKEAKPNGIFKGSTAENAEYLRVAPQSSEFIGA
Procedure: The assays were conducted in Vacsera (Giza, Egypt). Curve fitting was performed using GraphPad Prism. Data are represented as means ± SD from three independent experiments.
Assay : EGFR-T490M kinase assay
Reader : Tecan-spark reader
Kit used : BPS bioscience EGFR assay kit.

[10] = system: HePG-2; assay: MTT cytotoxicity assay, HePG-2; type: cell-based; settings: Homo sapiens, HepG2
Procedure: as §4

[11] = system: MCF-7 cells; assay: Cell cycle analysis (propidium iodide flow cytometry); type: cell-based, human; settings: MCF-7, 3.81 μM for 24 h (text: 1 μM)
[12] = system: WI-38; assay: MTT assay on normal cell line WI-38; type: cell-based; settings: normal human diploid fibroblasts
Procedure: as §3, §4

[13] = supplement lab report, read-out: EGFR IC50 (lab report) (converted)
[14] = supplement lab report, Human DNA Topoisomerase 2B Kit, read-out: TOP2a IC50 (lab report) (converted)
[15] = 24 h incubation, read-out: IC50 MCF-7 24 h
[16] = 48 h incubation, read-out: IC50 MCF-7 48 h
[17] = 72 h incubation, read-out: IC50 MCF-7 72 h
[18] = MTT, breast cancer cells, read-out: IC50 MCF-7
[19] = supplement lab report, read-out: VEGFR2 IC50 (lab report) (converted)
[20] = HCT-116, read-out: IC50 HCT-116, MTT, colon cancer cells
[21] = HCT-116, 24 h incubation, read-out: IC50 HCT116 24 h
[22] = HCT-116, 48 h incubation, read-out: IC50 HCT116 48 h
[23] = HCT-116, 72 h incubation, read-out: IC50 HCT116 72 h
[24] = 24 h incubation, read-out: IC50 HePG-2 24 h
[25] = 48 h incubation, read-out: IC50 HePG-2 48 h
[26] = 72 h incubation, read-out: IC50 HePG-2 72 h
[27] = MTT, liver cancer cells, read-out: IC50 HePG-2

SMILES: CC(=NNc1nc(C)nc2c1cnn2-c1ccccc1)c1ccccc1 [Compound 5i, 6-Methyl-1-phenyl-4-(2-(1-phenylethylidene)hydrazinyl)-1H-pyrazolo[3,4-d]pyrimidine]
- Apoptosis Total ([1]; 24 h): 36.06%
- Necrosis ([1]; 24 h): 4.33%
- Apoptosis Early ([1]; 24 h (text: 48 h)): 12.62%
- Apoptosis Late ([1]; 24 h (text: 48 h)): 19.11%
- EGFR %inh at conc 0.01 [2]: 36%
- EGFR %inh at conc 0.1 [2]: 52%
- EGFR %inh at conc 1 [2]: 73%
- EGFR %inh at conc 10 [2]: 88%
- IC50 [2, 13]: 0.187 µM
- TOPO IiB %inh at conc 0.1 [3]: 13%
- TOPO IiB %inh at conc 1 [3]: 27%
- TOPO IiB %inh at conc 10 [3]: 51%
- TOPO IiB %inh at conc 100 [3]: 74%
- IC50 ([3]; read-out: IC50 Topo-II): 24.7 ± 0.51 µM
- IC50 [3, 14]: 24.7 µM
- target selectivity index EGFR over Topo-II [4]: 66
- IC50 [5, 15]: 3.81 ± 0.3 µM
- IC50 [5, 16]: 3.34 ± 0.2 µM
- IC50 [5, 17]: 1.24 ± 0.3 µM
- IC50 [5, 18]: 3.81 ± 0.3 µM
- VEGFR2 %inh at conc 0.01 [6]: 7.5%
- VEGFR2 %inh at conc 0.1 [6]: 19%
- VEGFR2 %inh at conc 1 [6]: 58%
- VEGFR2 %inh at conc 10 [6]: 84%
- target selectivity index EGFR over VGFR-2 [6]: 20
- IC50 ([6]; read-out: IC50 VGFR2): 7.6 ± 0.15 µM
- IC50 [6, 19]: 7.58 µM
- IC50 [7]: 3 to 10 µM
- IC50 [8, 20]: 4.38 ± 0.2 µM
- IC50 [8, 21]: 4.38 ± 0.2 µM
- IC50 [8, 22]: 4.01 ± 0.3 µM
- IC50 [8, 23]: 2.76 ± 0.3 µM
- IC50 [9]: 0.56 ± 0.04 µM
- EGFR T790M %inh at conc 0.01 ([9]; conc 0.01 (conc.ng/ml)): 37%
- EGFR T790M %inh at conc 0.1 ([9]; conc 0.1 (conc.ng/ml)): 50%
- EGFR T790M %inh at conc 1 ([9]; conc 1 (conc.ng/ml)): 76%
- EGFR T790M %inh at conc 10 ([9]; conc 10 (conc.ng/ml)): 89%
- IC50 [10, 24]: 6.38 ± 0.1 µM
- IC50 [10, 25]: 3.34 ± 0.2 µM
- IC50 [10, 26]: 2.42 ± 0.2 µM
- IC50 [10, 27]: 6.38 ± 0.1 µM
- melting point: 245 to 247 °C
- DNA content %G0-G1 [11]: 49.63%
- DNA content %Pre-G1 [11]: 36.06%
- DNA content %S [11]: 43.12%

SMILES: Cc1nc(NNC(=S)Nc2ccccc2)c2cnn(-c3ccccc3)c2n1 [Compound 9e, 2-(6-Methyl-1-phenyl-1H-pyrazolo[3,4-d]pyrimidin-4-yl)-N-phenylhydrazinecarbothioamide]
- EGFR %inh at conc 0.01 [2]: 20%
- EGFR %inh at conc 0.1 [2]: 42%
- EGFR %inh at conc 1 [2]: 58%
- EGFR %inh at conc 10 [2]: 83%
- IC50 ([2]; read-out: IC50 EGFR^WT): 0.77 ± 0.018 µM
- IC50 [2, 13]: 0.77 µM
- TOPO IiB %inh at conc 0.1 [3]: 4%
- TOPO IiB %inh at conc 1 [3]: 16%
- TOPO IiB %inh at conc 10 [3]: 34%
- TOPO IiB %inh at conc 100 [3]: 65%
- IC50 ([3]; read-out: IC50 Topo-II): 24.6 ± 0.54 µM
- IC50 [3, 14]: 24.6 µM
- target selectivity index EGFR over Topo-II [4]: 31
- IC50 [5, 15]: 8.99 ± 0.5 µM
- IC50 [5, 16]: 8.16 ± 0.8 µM
- IC50 [5, 17]: 7.45 ± 0.7 µM
- IC50 [5, 18]: 8.99 ± 0.5 µM
- VEGFR2 %inh at conc 0.01 [6]: 14%
- VEGFR2 %inh at conc 0.1 [6]: 26%
- VEGFR2 %inh at conc 1 [6]: 46%
- VEGFR2 %inh at conc 10 [6]: 72%
- target selectivity index EGFR over VGFR-2 [6]: 21
- IC50 ([6]; read-out: IC50 VGFR2): 16.2 ± 0.36 µM
- IC50 [6, 19]: 16.2 µM
- IC50 [7]: 3 to 10 µM
- IC50 [8, 20]: 6.87 ± 0.5 µM
- IC50 [8, 21]: 6.87 ± 0.5 µM
- IC50 [8, 22]: 6.77 ± 0.4 µM
- IC50 [8, 23]: 5.55 ± 0.4 µM
- IC50 ([12]; Homo sapiens, WI-38, MTT): > 35 µM
- IC50 ([12]; MTT): 66 ± 0.23 µM
- IC50 [10, 24]: 7.8 ± 0.4 µM
- IC50 [10, 25]: 8.28 ± 0.8 µM
- IC50 [10, 26]: 5.93 ± 0.5 µM
- IC50 [10, 27]: 7.8 ± 0.4 µM
- melting point: 281 to 282 °C
